For one assay, the system named is SKMEL-188 cells. In words: Lactate dehydrogenase release assay. The note with it: SKMEL-188, 48 hours, FIG. 11A. Format: cell-based. As for the experimental part:
SKMEL-188 melanoma cells were incubated with Compound 4(R) at 60 μM for 48 hours. FIG. 11A is a graph showing the cytotoxicity as measured by LDH release from the cells following treatment. Data is presented as mean±SEM (n=8), *p<0.05, **p<0.005. FIG. 11B is a pair of graphs that show the DNA content, as measured by flow cytometry, of cells that were exposed to control (left) and Compound 4(R) (right).
Lactate Dehydrogenase Release Assay: SKMEL-188 cells were seeded at a density of 5000 cells per well in a 96-well flat-bottom microtiter plate. Media were changed after 12 hours and the testing compound was added at serial dilutions. Media were changed with fresh compound every 24 hours. […] Lactate dehydrogenase (LDH) in supernatants was measured using Cytotox 96 Non-Radioactive Cytotoxicity Assay (Promega, Madison, Wis.). […] At the end of incubation stop solution was added to each well and plate was read at 490 nm. Cytotoxicity of compounds was calculated using the following formula: percent cytotoxicity=experimental LDH release/maximum LDH release Experimental LDH release was calculated by subtraction of absorbance corresponding to media only from absorbance corresponding to control/compound treated cells. Maximum LDH release was calculated by subtraction of absorbance corresponding to media with added lysis solution from absorbance corresponding to cells lysed with lysis solution. […]

The test system of assay [1] is SKMEL-188 and WM-164 cell lines. In words: SRB assay, statements on both melanoma cell lines. The assay is classed as cell-based. As for the experimental part:
Louis, Mo.). WM-164 cells (gift of Dr. Meenhard Herlyn, Wistar Inst., Philadelphia, Pa.) and human dermal fibroblasts (Cascade Biologics, Inc., Portland, Oreg.) were cultured in DMEM medium (Cellgro Mediatech, Inc.) supplemented with 5% fetal bovine serum, 1% antibiotic.antimycotic mixture and bovine insulin ([…], Sigma-Aldrich, Inc.). Human dermal fibroblasts were used as a control to examine the effects of compounds on stromal environment. Thus, the effect of the various compounds on melanoma cells versus fibroblasts would document their potential selectivity. Sulforhodamine B Assay: Cells were seeded into 96-well plates at 5000 cells/well. After 12 hours, media were changed and serial dilutions of compounds were added. Cells were incubated with each compound for 48 hours. Fresh media containing the test compound were changed ever 24 hours. Thereafter, total cell protein corresponding to cell numbers (both viable and non-viable cells) were measured using the sulforhodamine B (SRB) assay according to manufacturer's protocol (Sigma-Aldrich, Inc.) (Rubinstein et al., “Comparison of in vitro Anticancer Drug-screening Data Generated with a Tetrazolium Assay Versus a Protein Assay Against a Diverse Panel of Human Tumor Cell Lines,” J. Natl. Cancer Inst. 82:1113-1118 (1990); Dothager et al., “Synthesis and Identification of Small Molecules that Potently Induce Apoptosis in Melanoma Cells Through GI Cell Cycle Arrest,” J. Am. Chem. Soc. 127:8686-8696 (2005), each of which is hereby incorporated by reference in its entirety). Briefly, cells were fixed with trichloracetic acid, washed and incubated with sulforhodamine B for 30 minutes. After another wash, dye incorporated into the cells was solubilized and measured using a plate reader at 565 nm. Statistical Analysis: Data is presented as mean±SEM (n=6-8). […] Statistical analyses were performed with Student's t-test (*p<0.05; **p<0.005). […] DTIC and Taxol were assayed in the same way for comparison and served as internal quality controls in the different batches of assay. For comparison, the activities of 5R and 5S were measured.
(In general: In SRB staining, fixed cells bind dye roughly in proportion to their protein.)

The values below come from patent publication US7662842B2, “Thiazolidinone amides, thiazolidine carboxylic acid amides, and serine amides, including polyamine conjugates thereof, as selective anti-cancer agents” (Ohio State Univesity Research Foundation, priority 2003, dated 2010).

Take `CCCCCCCCCCCCCCNC(=O)[C@@H]1CSC(c2ccccc2)N1.Cl` (mixture of isomers) [Compound 4, (2RS, 4R)-2-Phenylthiazolidine-4-carboxylic acid tetradecylamide Hydrochloride]: in the assay on SKMEL-188 cells, the “LDH released to cellular environment” value was “dramatic does-dependent increase of LDH released”. Also, in assay [1] (48 h, read-out: IC50 against both melanoma cell lines), the IC50 (usually the midpoint of a concentration-inhibition curve) is approximately 500 nM. In addition, in assay [1] (melanoma cells versus fibroblasts), the “Selectivity against both neoplastic cell lines (versus fibroblasts)” value is “over 10 fold”.
